According to the supplement of paper PMC10307832:

Columns and labels:
Experiment in all cases: relative viability (nuclei count vs DMSO), 5 days (fraction); higher = more cells survive
[1] = compound: CC1=NN=C(O1)C2=NN=C(C=C2)N3CCC(CC3)OC4=C(C=CC(=C4)F)Cl + NC(=O)Nc1cc(-c2cccc(F)c2)sc1C(=O)N[C@H]1CCCNC1 [AZD7762] (partner 0.2 µM)
Method in brief: (§1)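 After 5 days of treatment, lung cancer cells in 1536-well plates were fixed and stained in a single step (final 0.05% Triton X-100, 1% formaldehyde, 1 ug/ml Hoechst) and their nuclei counted on 4× images. Treatment had been applied by pin tool the day after seeding as one drug alone or as a fixed anchor-drug dose with five library-drug doses (not always all listed) in √10 steps. Relative viability is the nuclei count of treated wells divided by that of vehicle wells, and values are medians of duplicate plates.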

Tosedostat + Foretinib = compound: CC(C)C[C@@H](C(=O)N[C@H](C(=O)OC1CCCC1)c1ccccc1)[C@H](O)C(=O)NO [Tosedostat] + COc1cc2c(Oc3ccc(NC(=O)C4(C(=O)Nc5ccc(F)cc5)CC4)cc3F)ccnc2cc1OCCCN1CCOCC1 [Foretinib] (partner 0.25 µM)
Method in brief: as §1

[2] = compound: CC1=NN=C(O1)C2=NN=C(C=C2)N3CCC(CC3)OC4=C(C=CC(=C4)F)Cl + COc1cccc2cc(-c3nc([C@H]4CC[C@H](C(=O)O)CC4)n4ncnc(N)c34)[nH]c12 [OSI-027] (partner 0.5 µM)
Method in brief: as §1

Tosedostat + Lapatinib = compound: CC(C)C[C@@H](C(=O)N[C@H](C(=O)OC1CCCC1)c1ccccc1)[C@H](O)C(=O)NO [Tosedostat] + CS(=O)(=O)CCNCc1ccc(-c2ccc3ncnc(Nc4ccc(OCc5cccc(F)c5)c(Cl)c4)c3c2)o1 [Lapatinib] (partner 2 µM)
Method in brief: as §1

| Cell Line | relative viability ([1]; first compound 0.253 µM) | relative viability ([1]; first compound 0.8 µM) | relative viability ([1]; first compound 2.53 µM) | relative viability ([1]; first compound 8 µM) | relative viability (Tosedostat + Foretinib; first compound 0.02 µM) | relative viability (Tosedostat + Foretinib; first compound 0.06325 µM) | relative viability (Tosedostat + Foretinib; first compound 0.2 µM) | relative viability (Tosedostat + Foretinib; first compound 0.6325 µM) | relative viability (Tosedostat + Foretinib; first compound 2 µM) | relative viability ([2]; first compound 0.253 µM) | relative viability ([2]; first compound 0.8 µM) | relative viability ([2]; first compound 2.53 µM) | relative viability ([2]; first compound 8 µM) | relative viability (Tosedostat + Lapatinib; first compound 0.02 µM) | relative viability (Tosedostat + Lapatinib; first compound 0.06325 µM) | relative viability (Tosedostat + Lapatinib; first compound 0.2 µM) | relative viability (Tosedostat + Lapatinib; first compound 0.6325 µM) | relative viability (Tosedostat + Lapatinib; first compound 2 µM) |
| --- | --- | --- | --- | --- | --- | --- | --- | --- | --- | --- | --- | --- | --- | --- | --- | --- | --- | --- |
| NCI-H1666 | 0.686 | 0.765 | 0.79 | 0.715 | 1.08 | 1.01 | 0.945 | 0.899 | 1.05 | 0.539 | 0.697 | 0.801 | 0.797 | 0.841 | 0.853 | 0.669 | 0.735 | 0.618 |
| NCI-H1734 | 0.612 | 0.413 | 0.672 | 0.662 | 0.93 | 0.859 | 0.826 | 0.818 | 0.652 | 0.647 | 0.446 | 0.599 | 0.524 | 1.23 | 1.11 | 0.997 | 1.01 | 0.763 |
| NCI-H1755 | 0.442 | 0.428 | 0.465 | 0.418 | 1.01 | 0.944 | 1 | 0.992 | 0.931 | 0.609 | 0.625 | 0.669 | 0.597 | 1.1 | 1.08 | 1.09 | 1.1 | 1.13 |
| NCI-H1793 | 0.411 | 0.482 | 0.756 | 0.407 | 0.559 | 0.789 | 0.742 | 0.629 | 0.637 | 0.253 | 0.2 | 0.296 | 0.276 | 0.579 | 0.73 | 0.874 | 0.82 | 0.618 |
| NCI-H1915 | 0.501 | 0.276 | 0.464 | 0.381 | 1.13 | 1.1 | 1.14 | 1.05 | 0.947 | 0.596 | 0.349 | 0.553 | 0.421 | 1.08 | 0.938 | 0.947 | 0.953 | 0.956 |
| NCI-H1944 | 0.368 | 0.348 | 0.561 | 0.441 | 0.984 | 0.787 | 0.864 | 0.822 | 0.773 | 0.36 | 0.379 | 0.441 | 0.425 | 0.94 | 0.836 | 0.854 | 0.81 | 0.904 |
| NCI-H1975 | – | – | 0.717 | 0.719 | 0.986 | 0.985 | 1.12 | 0.71 | 0.699 | – | 0.529 | 0.754 | 0.695 | 0.835 | 0.966 | 0.86 | 0.703 | 0.751 |
| NCI-H1993 | 0.713 | 0.69 | 0.769 | 0.652 | 0.72 | 0.565 | 0.793 | 0.675 | 0.534 | 0.457 | 0.552 | 0.523 | 0.581 | 0.904 | 0.997 | 0.857 | 0.87 | 0.734 |
| NCI-H2085 | 0.636 | 0.667 | 0.797 | 0.607 | 0.919 | 0.971 | 0.915 | 0.965 | 0.875 | 0.594 | – | 0.732 | 0.49 | 0.568 | 0.825 | 0.827 | 0.743 | 0.836 |
| NCI-H2087 | 0.903 | 0.906 | 0.953 | 0.704 | 1.3 | 1.13 | 1.06 | 0.98 | 0.941 | 0.641 | 0.422 | 0.422 | 0.3 | 1.08 | 1.1 | 1.1 | 0.907 | 0.844 |
| NCI-H2126 | 0.893 | 0.854 | 0.929 | 0.849 | 1.12 | 1.27 | 1.25 | 1.07 | 1.12 | 0.626 | 0.589 | 0.756 | 0.661 | 0.705 | 0.754 | 0.83 | 0.76 | 0.674 |
| NCI-H2170 | 0.343 | 0.346 | 0.472 | 0.367 | 1.01 | 1.04 | 0.958 | 0.959 | 1.05 | 0.486 | 0.485 | 0.654 | 0.489 | 0.25 | 0.258 | 0.273 | 0.289 | 0.276 |
| NCI-H2347 | 0.56 | 0.572 | 0.637 | 0.489 | 0.711 | 0.731 | 1.04 | 0.955 | 0.969 | – | 0.366 | 0.463 | 0.354 | 1.12 | 1.02 | 1.03 | 0.892 | 0.888 |
| NCI-H2405 | 0.684 | 0.684 | 0.627 | 0.654 | 1.03 | 1.02 | 1.07 | 1.02 | 0.932 | 0.607 | 0.549 | 0.634 | 0.616 | 1.43 | 1.06 | 0.999 | 1.02 | 0.847 |
| NCI-H3122 | 0.444 | 0.469 | 0.503 | 0.485 | 1.01 | 0.901 | 1.01 | 0.967 | 1.07 | 0.359 | 0.384 | 0.418 | 0.348 | 1.09 | 0.99 | 1.07 | 1.07 | 1.04 |
| PC-3 [JPC-3] | 0.702 | 0.602 | 0.728 | 0.914 | 1.01 | 1.02 | 0.997 | 0.778 | 0.65 | 0.691 | 0.619 | 0.655 | 0.681 | 0.445 | 0.453 | 0.432 | 0.452 | 0.428 |
| PC-14 | 0.28 | 0.271 | 0.374 | 0.253 | 0.948 | 0.936 | 0.987 | 0.868 | 0.912 | 0.818 | 0.572 | 0.721 | 0.643 | 0.273 | 0.32 | 0.348 | 0.269 | 0.371 |
